Results as given in patent publication US8088806B2 (Achillion Pharmaceuticals, Inc., priority 2005, dated 2012).

Test system: HCV replicon
Assay: Replicon based assay of HCV replication inhibition (NPT ELISA)
Type: cell-based, Hepatitis C virus
Conditions: Hepatitis C virus, Huh-7, 72 h, Table I; Huh-7 HCV replicon-containing cells, three days; read-out: Activity
Method in brief: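 Huh-7 cells carrying a bicistronic HCV replicon (neo, EMCV-IRES-driven NS3–NS5B) treated overnight after seeding with usually 6 concentrations, 10 to 0.03 micromolar, for three days at 37° C without G418. Replication read as NPT level by captured ELISA; matched-DMSO wells and interferon alpha as controls.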

| Structure (SMILES) | EC50 |
| --- | --- |
| CCCCCOc1ccc(Nc2nc(-c3ccc(OCC(=O)OCC)cc3)c(C)s2)cc1C(F)(F)F [compound 139, ethyl 2-(4-(2-(3-(trifluoromethyl)-4-(pentyloxy)phenylamino)-5-methylthiazol-4-yl)phenoxy)acetate] | < 1 µM |
| CCCCCOc1ccc(N(C(=O)c2cccnc2)c2nc(NC(=O)c3cccnc3)cs2)cc1C(F)(F)F [compound 140, N-(2-(N-(3-(trifluoromethyl)-4-(pentyloxy)phenyl)nicotinamido)-thiazol-4-yl)nicotinamide] | < 1 µM |
| c1ccc(Oc2ccc(Nc3nc(-c4cccnc4)cs3)cc2)cc1 [compound 141, N-(4-phenoxyphenyl)-4-(pyridin-3-yl)thiazol-2-amine] | < 1 µM |
| Clc1ccc(-c2csc(NC3=NN(c4ccccc4)CC3)n2)cc1 [compound 142, N-(4-(4-chlorophenyl)thiazol-2-yl)-4,5-dihydro-1-phenyl-1H-pyrazol-3-amine] | > 10 µM |
| c1ccc(N2CCC(Nc3nc(-c4cccnc4)cs3)=N2)cc1 [compound 143, 4,5-dihydro-1-phenyl-N-(4-(pyridin-3-yl)thiazol-2-yl)-1H-pyrazol-3-amine] | > 10 µM |
| Fc1ccc(-c2csc(Nc3ccc(Oc4ccccc4)cc3)n2)cc1 [compound 144, 4-(4-fluorophenyl)-N-(4-phenoxyphenyl)thiazol-2-amine] | < 1 µM |
| Fc1ccc(-c2csc(Nc3nc(-c4ccc(Cl)cc4)cs3)n2)cc1 [compound 145, 4-(4-chlorophenyl)-N-(4-(4-fluorophenyl)thiazol-2-yl)thiazol-2-amine] | > 10 µM |
| Fc1ccc(-c2csc(NC3=NN(c4ccccc4)CC3)n2)cc1 [compound 146, N-(4-(4-fluorophenyl)thiazol-2-yl)-4,5-dihydro-1-phenyl-1H-pyrazol-amine] | > 10 µM |
| CCOC(=O)Cc1csc(Nc2nc(-c3ccc(Cl)cc3)cs2)n1 [compound 147, ethyl 2-(2-(4-(4-chlorophenyl)thiazol-2-ylamino)thiazol-4-yl)acetate] | > 10 µM |
| CCCCCOc1ccc(Nc2ncc(C(=O)O)s2)cc1C(F)(F)F [compound 148, 2-(3-(trifluoromethyl)-4-(pentyloxy)phenylamino)thiazole-5-carboxylic acid] | > 10 µM |
| CCCCCOc1ccc(Nc2ncc(C(=O)Nc3ccc(Cl)cc3)s2)cc1C(F)(F)F [compound 149, 2-(3-(trifluoromethyl)-4-(pentyloxy)phenylamino)-N-(4-chlorophenyl)thiazole-5-carboxamide] | < 1 µM |
| CCCCCOc1ccc(Nc2ncc(C(=O)Nc3ccc(C#N)cc3)s2)cc1C(F)(F)F [compound 150, 2-(3-(trifluoromethyl)-4-(pentyloxy)phenylamino)-N-(4-cyanophenyl)thiazole-5-carboxamide] | < 1 µM |
| CCCCCOc1ccc(Nc2ncc(C(=O)NCc3ccc(S(N)(=O)=O)cc3)s2)cc1C(F)(F)F [compound 151, N-(4-aminosulfonyl-benzyl)-2-(4-(pentyloxy)-3-(trifluoromethyl)phenylamino)-thiazole-5-carboxamide] | > 10 µM |
| CCCCCOc1ccc(Nc2nc(C(=O)NCc3ccc(S(N)(=O)=O)cc3)cs2)cc1C(F)(F)F [compound 153, 2-(4-(pentyloxy)-3-(trifluorornethyl)phenylamino)-N-(4-aminosulfonylbenzyl)thiazole-4-carboxamide] | 1 to 10 µM |
| CCCCCOc1ccc(Nc2nc(-c3ccc(C)nc3)cs2)cc1C(F)(F)F [compound 154, N-(3-(trifluoromethyl)-4-(pentyloxy)phenyl)-4-(6-methylpyridin-3-yl)thiazol-2-amine] | < 1 µM |
| CCCCCOc1ccc(Nc2nc(-c3ccc(C(=O)O)cc3)cs2)cc1C(F)(F)F [compound 155, 4-(2-(3-(trifluoromethyl)-4-(pentyloxy)phenylamino)thiazol-4-yl)benzoic acid] | < 1 µM |
| CCCCCOc1ccc(Nc2nc(-c3cnccn3)cs2)cc1C(F)(F)F [compound 156, N-(3-(trifluoromethyl)-4-(pentyloxy)phenyl)-4-(pyrazin-2-yl)thiazol-2-amine] | < 1 µM |
| CCCCCOc1ccc(N(C)c2nc(-c3cccnc3)cs2)cc1C(F)(F)F [compound 157, N-(3-(trifluoromethyl)-4-(pentyloxy)phenyl)-N-methyl-4-(pyridin-3-yl)thiazol-2-amine] | < 1 µM |
| CCCCCOc1ccc(N(C)c2nc(C(=O)O)cs2)cc1C(F)(F)F [compound 158, 2-(N-(3-(trifluoromethyl)-4-(pentyloxy)phenyl)-N-methylamino)thiazole-4-carboxylic acid] | > 10 µM |
| CCCCCOc1ccc(N(C)c2nc(C(=O)Nc3ccc(Cl)cc3)cs2)cc1C(F)(F)F [compound 159, 2-(N-(3-(trifluoromethyl)-4-(pentyloxy)phenyl)-N-methylamino)-N-(4-chlorophenyl)thiazole-4-carboxamide] | > 10 µM |
| CCCCCOc1ccc(N(C)c2nc(C(=O)Nc3ccc(C#N)cc3)cs2)cc1C(F)(F)F [compound 160, 2-(N-(3-(trifluoromethyl)-4-(pentyloxy)phenyl)-N-methylamino)-N-(4-cyanophenyl)thiazole-4-carboxamide] | > 10 µM |

| Structure (SMILES) | EC50 |
| --- | --- |
| CCCCCOc1ccc(Nc2nc(C(N)CC(C)C)cs2)cc1C(F)(F)F (stereo not drawn) [compound 161, 4-(1-amino-3-methylbutyl)-N-(3-(trifluoromethyl)-4-(pentyloxy)phenyl)thiazol-2-amine] | 1 to 10 µM |
| CCCCCOc1ccc(N(C)c2nc(C(=O)Nc3cccnc3)cs2)cc1C(F)(F)F [compound 162, 2-(N-(3-(trifluoromethyl)-4-(pentyloxy)phenyl)-N-methylamino)-N-(pyridin-3-yl)thiazole-4-carboxamide] | > 10 µM |
| CCCCCOc1ccc(Nc2ncc(C(=O)Nc3cccnc3)s2)cc1C(F)(F)F [compound 163, 2-(3-(trifluoromethyl)-4-(pentyloxy)phenylamino)-N-(pyridin-3-yl)thiazole-5-carboxamide] | < 1 µM |
| COc1ccc(OC)c(Nc2nc(-c3c(C)nc4sccn34)cs2)c1 [compound 164, N-(2,5-dimethoxyphenyl)-4-(6-methylimidazo[2,1-b]thiazol-5-yl)thiazol-2-amine] | > 10 µM |
| COc1ccc(Nc2nc(-c3c(C)nc4sccn34)cs2)cc1 [compound 165, N-(4-methoxyphenyl)-4-(6-methylimidazo[2,1-b]thiazol-5-yl)thiazol-2-amine] | < 1 µM |
| CC(=O)c1cccc(Nc2nc(-c3c(C)nc4cc(C)ccn34)cs2)c1 [compound 167, 1-(3-(4-(2,7-dimethylH-imidazo[1,2-a]pyridin-3-yl)thiazol-2-ylamino)phenyl)ethanone] | > 10 µM |
| Cc1c(-c2csc(Nc3ccccc3)n2)sc2ncnn12 [compound 168, 4-(6-methylthiazolo[3,2-b][1,2,4]triazol-5-yl)-N-phenylthiazol-2-amine] | 1 to 10 µM |
| COc1ccc(-c2csc(Nc3ccc4c(c3)OCO4)n2)cc1F [compound 169, N-(benzo[d][1,3]dioxol-5-yl)-4-(3-fluoro-4-methoxyphenyl)thiazol-2-amine] | > 10 µM |
| Cc1ccnc(Nc2nc(-c3c(C)nc4sccn34)cs2)c1 [compound 170, 4-methyl-N-(4-(6-methylimidazo[2,1-b]thiazol-5-yl)thiazol-2-yl)pyridin-2-amine] | > 10 µM |
| CCCCCOc1ccc(Nc2nc(CN3CCOCC3)cs2)cc1C(F)(F)F [compound 171, N-(3-(trifluoromethyl)-4-(pentyloxy)phenyl)-4-(morpholinomethyl)thiazol-2-amine] | < 1 µM |
| CCCCCOc1ccc(Nc2nc(CN(C)C)cs2)cc1C(F)(F)F [compound 172, 4-((dimethylamino)methyl)-N-(3-(trifluoromethyl)-4-(pentyloxy)phenyl)thiazol-2-amine] | < 1 µM |
| CCCCCOc1ccc(N(C(C)=O)c2nc(C(=O)Nc3cccnc3)cs2)cc1C(F)(F)F [compound 173, 2-(N-(3-(trifluoromethyl)-4-(pentyloxy)phenyl)acetamido)-N-(pyridin-3-yl)thiazole-4-carboxamide] | > 10 µM |
| CCCCCOc1ccc(Nc2nc(-c3cccc(F)c3)cs2)cc1F [compound 174, N-(3-fluoro-4-(pentyloxy)phenyl)-4-(3-fluorophenyl)thiazol-2-amine] | < 1 µM |
| CCCCCOc1ccc(Nc2nc(-c3cc(-c4ccc(Cl)c(Cl)c4)no3)cs2)cc1F [compound 175, 4-(3-(3,4-dichlorophenyl)isoxazol-5-yl)-N-(3-fluoro-4-(pentyloxy)phenyl)thiazol-2-amine] | > 10 µM |
| CCCCCOc1ccc(Nc2nc(-c3cc(C(=O)OCC)no3)cs2)cc1F [compound 176, ethyl 5-(2-(3-fluoro-4-(pentyloxy)phenylamino)thiazol-4-yl)isoxazole-3-carboxylate] | > 10 µM |
| CCCCCOc1ccc(Nc2nc(-c3ccccc3Cl)cs2)cc1F [compound 177, 4-(2-chlorophenyl)-N-(3-fluoro-4-(pentyloxy)phenyl)thiazol-2-amine] | < 1 µM |
| CCCCCOc1ccc(Nc2nc(-c3cccc(F)c3)cs2)cn1 [compound 178, N-(4-(3-fluorophenyl)thiazol-2-yl)-6-(pentyloxy)pyridin-3-amine] | < 1 µM |
| CCCCCOc1ccc(Nc2nc(-c3cc(-c4ccc(Cl)c(Cl)c4)no3)cs2)cn1 [compound 179, N-(4-(3-(3,4-dichlorophenyi)isoxazol-5-yl)thiazol-2-yl)-6-(pentyloxy)pyridin-3-amine] | > 10 µM |
| CCCCCOc1ccc(Nc2nc(-c3cc(C(=O)OCC)no3)cs2)cn1 [compound 180, ethyl 5-(2-(6-(pentyloxy)pyridin-3-ylamino)thiazol-4-yl)isoxazole-3-carboxylate] | > 10 µM |
| CCCCCOc1ccc(Nc2nc(-c3ccccc3Cl)cs2)cn1 [compound 181, N-(4-(2-chlorophenyl)thiazol-2-yl)-6-(pentyloxy)pyridin-3-amine] | < 1 µM |
| CCCCCc1ccc(Nc2nc(-c3ccc(CC(=O)O)cc3)c(C)s2)cc1 [compound 182, 2-(4-(2-(4-pentylphenylamino)-5-methylthiazol-4-yl)phenyl)acetic acid] | < 1 µM |
